{"source": "PubChem BioAssay (NCI)", "assay_in_all_cases": "growth of human tumour cells (NCI), 48 h", "key": {"[1]": {"system": "HS 578T breast"}, "[2]": {"system": "MALME-3M melanoma"}, "[3]": {"system": "OVCAR-4 ovarian"}, "[4]": {"system": "SK-MEL-5 melanoma"}, "[5]": {"system": "HOP-62 NSCLC"}, "[6]": {"system": "HL-60(TB) leukemia"}, "[7]": {"system": "SR leukemia"}, "[8]": {"system": "SF-539 CNS"}, "[9]": {"system": "SK-MEL-28 melanoma"}, "[10]": {"system": "T-47D breast"}, "[11]": {"system": "PC-3 prostate"}, "[12]": {"system": "SF-268 CNS"}, "[13]": {"system": "HCC-2998 colon"}, "[14]": {"system": "RXF 393 renal"}, "[15]": {"system": "K-562 leukemia"}, "[16]": {"system": "LOX IMVI melanoma"}, "[17]": {"system": "UO-31 renal"}, "[18]": {"system": "MDA-MB-231 breast"}, "[19]": {"system": "IGROV1 ovarian"}, "[20]": {"system": "MCF7 breast"}, "[21]": {"system": "HOP-92 NSCLC"}, "[22]": {"system": "TK-10 renal"}, "[23]": {"system": "SNB-75 CNS"}, "[24]": {"system": "NCI-H226 lung"}, "[25]": {"system": "M14 melanoma"}, "[26]": {"system": "UACC-257 melanoma"}, "[27]": {"system": "SK-MEL-2 melanoma"}, "[28]": {"system": "EKVX NSCLC"}, "[29]": {"system": "SN12C renal"}, "[30]": {"system": "SW-620 colon"}, "[31]": {"system": "A498 renal"}, "[32]": {"system": "NCI-H460 lung"}, "[33]": {"system": "ACHN renal"}, "[34]": {"system": "COLO 205 colon"}, "[35]": {"system": "BT-549 breast"}, "[36]": {"system": "MDA-MB-468 breast"}, "[37]": {"system": "DU-145 prostate"}, "[38]": {"system": "SK-OV-3 ovarian"}, "[39]": {"system": "SNB-19 CNS"}, "[40]": {"system": "CAKI-1 renal"}, "[41]": {"system": "NCI/ADR-RES ovarian"}, "[42]": {"system": "SF-295 CNS"}, "[43]": {"system": "HCT-15 colon"}, "[44]": {"system": "OVCAR-5 ovarian"}, "[45]": {"system": "KM12 colon"}, "[46]": {"system": "NCI-H23 lung"}, "[47]": {"system": "UACC-62 melanoma"}, "[48]": {"system": "NCI-H522 lung"}, "[49]": {"system": "MOLT-4 leukemia"}}, "note": "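Values below derive from 48-hour exposures of cells grown in 96-well plates, with endpoints linearly interpolated between the two concentrations bracketing the appropriate inhibition level. GI50: concentration for 50% inhibition of growth. TGI: concentration producing complete growth inhibition.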", "data": [{"smiles": "O=C(CSc1nnc(-c2ccc3nc(-c4ccc(Cl)cc4)[nH]c3c2)o1)Nc1ccc(Cl)cc1", "values": [{"measurement": "GI50", "setting": "[1]", "value": 2.43, "unit": "µM"}, {"measurement": "TGI", "setting": "[1]", "value": 8.1, "unit": "µM"}, {"measurement": "GI50", "setting": "[2]", "value": 1.86, "unit": "µM"}, {"measurement": "TGI", "setting": "[2]", "value": 4.07, "unit": "µM"}, {"measurement": "GI50", "setting": "[3]", "value": 2.61, "unit": "µM"}, {"measurement": "TGI", "setting": "[3]", "value": 7.73, "unit": "µM"}, {"measurement": "GI50", "setting": "[4]", "value": 1.97, "unit": "µM"}, {"measurement": "TGI", "setting": "[4]", "value": 4.2, "unit": "µM"}, {"measurement": "GI50", "setting": "[5]", "value": 2.3, "unit": "µM"}, {"measurement": "TGI", "setting": "[5]", "value": 5.46, "unit": "µM"}, {"measurement": "GI50", "setting": "[6]", "value": 2.43, "unit": "µM"}, {"measurement": "TGI", "setting": "[6]", "value": 7.59, "unit": "µM"}, {"measurement": "GI50", "setting": "[7]", "value": 3.6, "unit": "µM"}, {"measurement": "TGI", "setting": "[7]", "value": "> 100", "unit": "µM"}, {"measurement": "GI50", "setting": "[8]", "value": 1.55, "unit": "µM"}, {"measurement": "TGI", "setting": "[8]", "value": 2.9, "unit": "µM"}, {"measurement": "GI50", "setting": "[9]", "value": 1.94, "unit": "µM"}, {"measurement": "TGI", "setting": "[9]", "value": 4.22, "unit": "µM"}, {"measurement": "GI50", "setting": "[10]", "value": 7.07, "unit": "µM"}, {"measurement": "TGI", "setting": "[10]", "value": 68.2, "unit": "µM"}, {"measurement": "GI50", "setting": "[11]", "value": 2.44, "unit": "µM"}, {"measurement": "TGI", "setting": "[11]", "value": 7.99, "unit": "µM"}, {"measurement": "GI50", "setting": "[12]", "value": 3.18, "unit": "µM"}, {"measurement": "TGI", "setting": "[12]", "value": 77.9, "unit": "µM"}, {"measurement": "GI50", "setting": "[13]", "value": 3.63, "unit": "µM"}, {"measurement": "TGI", "setting": "[13]", "value": 14.4, "unit": "µM"}, {"measurement": "GI50", "setting": "[14]", "value": 1.59, "unit": "µM"}, {"measurement": "TGI", "setting": "[14]", "value": 3.7, "unit": "µM"}, {"measurement": "GI50", "setting": "[15]", "value": 2.89, "unit": "µM"}, {"measurement": "TGI", "setting": "[15]", "value": "> 100", "unit": "µM"}, {"measurement": "GI50", "setting": "[16]", "value": 1.54, "unit": "µM"}, {"measurement": "TGI", "setting": "[16]", "value": 2.88, "unit": "µM"}, {"measurement": "GI50", "setting": "[17]", "value": 1.61, "unit": "µM"}, {"measurement": "TGI", "setting": "[17]", "value": 4.02, "unit": "µM"}, {"measurement": "GI50", "setting": "[18]", "value": 1.66, "unit": "µM"}, {"measurement": "TGI", "setting": "[18]", "value": 3.11, "unit": "µM"}, {"measurement": "GI50", "setting": "[19]", "value": 2.24, "unit": "µM"}, {"measurement": "TGI", "setting": "[19]", "value": 7.98, "unit": "µM"}, {"measurement": "GI50", "setting": "[20]", "value": 1.76, "unit": "µM"}, {"measurement": "TGI", "setting": "[20]", "value": 4.08, "unit": "µM"}, {"measurement": "GI50", "setting": "[21]", "value": 2.33, "unit": "µM"}, {"measurement": "TGI", "setting": "[21]", "value": 6.86, "unit": "µM"}, {"measurement": "GI50", "setting": "[22]", "value": 10.3, "unit": "µM"}, {"measurement": "TGI", "setting": "[22]", "value": 26.5, "unit": "µM"}, {"measurement": "GI50", "setting": "[23]", "value": 1.75, "unit": "µM"}, {"measurement": "TGI", "setting": "[23]", "value": 5.58, "unit": "µM"}, {"measurement": "GI50", "setting": "[24]", "value": 1.72, "unit": "µM"}, {"measurement": "TGI", "setting": "[24]", "value": 4.33, "unit": "µM"}, {"measurement": "GI50", "setting": "[25]", "value": 2.11, "unit": "µM"}, {"measurement": "TGI", "setting": "[25]", "value": 5.01, "unit": "µM"}, {"measurement": "GI50", "setting": "[26]", "value": 2.4, "unit": "µM"}, {"measurement": "TGI", "setting": "[26]", "value": 6.24, "unit": "µM"}, {"measurement": "GI50", "setting": "[27]", "value": 2.53, "unit": "µM"}, {"measurement": "TGI", "setting": "[27]", "value": 7.08, "unit": "µM"}, {"measurement": "GI50", "setting": "[28]", "value": 2.04, "unit": "µM"}, {"measurement": "TGI", "setting": "[28]", "value": 6.43, "unit": "µM"}, {"measurement": "GI50", "setting": "[29]", "value": 1.69, "unit": "µM"}, {"measurement": "TGI", "setting": "[29]", "value": 3.19, "unit": "µM"}, {"measurement": "GI50", "setting": "[30]", "value": 2.18, "unit": "µM"}, {"measurement": "TGI", "setting": "[30]", "value": 5.72, "unit": "µM"}, {"measurement": "GI50", "setting": "[31]", "value": 12.3, "unit": "µM"}, {"measurement": "TGI", "setting": "[31]", "value": 26.4, "unit": "µM"}, {"measurement": "GI50", "setting": "[32]", "value": 1.77, "unit": "µM"}, {"measurement": "TGI", "setting": "[32]", "value": 3.38, "unit": "µM"}, {"measurement": "GI50", "setting": "[33]", "value": 1.51, "unit": "µM"}, {"measurement": "TGI", "setting": "[33]", "value": 3.19, "unit": "µM"}, {"measurement": "GI50", "setting": "[34]", "value": 3.52, "unit": "µM"}, {"measurement": "TGI", "setting": "[34]", "value": 28.5, "unit": "µM"}, {"measurement": "GI50", "setting": "[35]", "value": 2.33, "unit": "µM"}, {"measurement": "TGI", "setting": "[35]", "value": 5, "unit": "µM"}, {"measurement": "GI50", "setting": "[36]", "value": 2.41, "unit": "µM"}, {"measurement": "TGI", "setting": "[36]", "value": 6.19, "unit": "µM"}, {"measurement": "GI50", "setting": "[37]", "value": 2.53, "unit": "µM"}, {"measurement": "TGI", "setting": "[37]", "value": 6.35, "unit": "µM"}, {"measurement": "GI50", "setting": "[38]", "value": 3.89, "unit": "µM"}, {"measurement": "TGI", "setting": "[38]", "value": 14.1, "unit": "µM"}, {"measurement": "GI50", "setting": "[39]", "value": 2.04, "unit": "µM"}, {"measurement": "TGI", "setting": "[39]", "value": 4.52, "unit": "µM"}, {"measurement": "GI50", "setting": "[40]", "value": 1.62, "unit": "µM"}, {"measurement": "TGI", "setting": "[40]", "value": 3.79, "unit": "µM"}, {"measurement": "GI50", "setting": "[41]", "value": 2.55, "unit": "µM"}, {"measurement": "TGI", "setting": "[41]", "value": 6.92, "unit": "µM"}, {"measurement": "GI50", "setting": "[42]", "value": 1.64, "unit": "µM"}, {"measurement": "TGI", "setting": "[42]", "value": 3.14, "unit": "µM"}, {"measurement": "GI50", "setting": "[43]", "value": 1.37, "unit": "µM"}, {"measurement": "TGI", "setting": "[43]", "value": 3.18, "unit": "µM"}, {"measurement": "GI50", "setting": "[44]", "value": 8.68, "unit": "µM"}, {"measurement": "TGI", "setting": "[44]", "value": 23.9, "unit": "µM"}, {"measurement": "GI50", "setting": "[45]", "value": 2.78, "unit": "µM"}, {"measurement": "TGI", "setting": "[45]", "value": 27, "unit": "µM"}, {"measurement": "GI50", "setting": "[46]", "value": 1.65, "unit": "µM"}, {"measurement": "TGI", "setting": "[46]", "value": 3.24, "unit": "µM"}, {"measurement": "GI50", "setting": "[47]", "value": 1.56, "unit": "µM"}, {"measurement": "TGI", "setting": "[47]", "value": 3.37, "unit": "µM"}, {"measurement": "GI50", "setting": "[48]", "value": 2.05, "unit": "µM"}, {"measurement": "TGI", "setting": "[48]", "value": 5.61, "unit": "µM"}, {"measurement": "GI50", "setting": "[49]", "value": 2.6, "unit": "µM"}, {"measurement": "TGI", "setting": "[49]", "value": "> 100", "unit": "µM"}]}]}
